This is an account of results in ChEMBL document CHEMBL4513161, “CO-ADD screening of MMV (CH) - Pandemic Response Box” (2021).

One experiment has as its system Klebsiella pneumoniae. Briefly: microbe, parasite or virus in culture. As to conditions: ATCC 700603, 18 h, ASSAY_TEST Inhibition of Bacterial Growth, detection method Absorption (OD600), MEDIA CAMHB, plate type 384well, NBS, CORNING #3640.
Experiment [1] deals with Pseudomonas aeruginosa. Nature of the experiment: Antibacterial activity against Pseudomonas aeruginosa PAO397 [PAO1 d(mexAB-oprM) d(mexCD-oprJ) d(mexEF-oprN) d(mexJKL) d(mexXY) d(opmH)] (CO-ADD:GN_211); MIC in CAMBH media using NBS plates, by OD(600). The experiment is classed as functional. As to conditions: ASSAY_TEST Inhibition of Bacterial Growth, detection method Absorption (OD600), MEDIA CAMHB, plate type 384well, CORNING #3640, time 18 hr.

A further experiment relates to Escherichia coli. Briefly: microbe, parasite or virus in culture. As to conditions: ATCC 25922, 18 h, ASSAY_TEST Inhibition of Bacterial Growth, detection method Absorption (OD600), MEDIA CAMHB, plate type 384well, NBS, CORNING #3640.
The next experiment concerns HEK293. Briefly: cells. The conditions noted are these: Homo sapiens, ATCC CRL1573, HEK293; ASSAY_TEST Inhibition of Cell Viability; detection method Resazurin; Fluorescence (ex560/em590); MEDIA DMEM with 10% FBS; plate type 384well; TC; CORNING #3712; time 18 hr; read-out: CC50. The experiment is classed as functional, Homo sapiens, ATCC CRL1573. On the technique in general: Alamar Blue is a resazurin reagent that responds to reducing activity.

For another experiment, the system named is Staphylococcus aureus. Briefly: microbe, parasite or virus in culture. As to conditions: ATCC 43300, 18 h, ASSAY_TEST Inhibition of Bacterial Growth, detection method Absorption (OD600), MEDIA CAMHB, plate type 384well, NBS, CORNING #3640.
The test system of another experiment is Candida albicans. Nature of the experiment: microbe, parasite or virus in culture. The conditions noted are these: ATCC 90028, ASSAY_TEST Inhibition of Fungal Growth, detection method Absorption (OD530), plate type 384well, NBS, CORNING #3640.
The test system of experiment [2] is Pseudomonas aeruginosa. Briefly: microbe, parasite or virus in culture. As to conditions: ATCC 27853, 18 h, ASSAY_TEST Inhibition of Bacterial Growth, detection method Absorption (OD600), MEDIA CAMHB, plate type 384well, NBS, CORNING #3640.
Description: Antibacterial activity against Pseudomonas aeruginosa ATCC 27853 (CO-ADD:GN_042); MIC in CAMBH media using NBS plates, by OD(600)
The next experiment deals with Acinetobacter baumannii. Nature of the experiment: microbe, parasite or virus in culture. As to conditions: ATCC 19606, 18 h, ASSAY_TEST Inhibition of Bacterial Growth, detection method Absorption (OD600), MEDIA CAMHB, plate type 384well, NBS, CORNING #3640.

The structures appear in SMILES notation. Converted amounts (≈) assume the structure as drawn. Bounds are passed on as bounds.

Description for Acinetobacter baumannii: Antibacterial activity against Acinetobacter baumannii ATCC 19606 (CO-ADD:GN_034); MIC in CAMBH media using NBS plates, by OD600
Description for Candida albicans: Antifungal activity against Candida albicans ATCC 90028 (CO-ADD:FG_001); MIC in YNB media using NBS plates, by OD630
Description for Cryptococcus neoformans: Antifungal activity against Cryptococcus neoformans H99 ATCC 208821 (CO-ADD:FG_002); MIC in YNB media using NBS plates, by Resazurin OD(600-570)
Description for Escherichia coli: Antibacterial activity against Escherichia coli ATCC 25922 (CO-ADD:GN_001); MIC in CAMBH media using NBS plates, by OD(600)
Description for Klebsiella pneumoniae: Antibacterial activity against Klebsiella pneumoniae MDR ATCC 70063 (CO-ADD:GN_003); MIC in CAMBH media using NBS plates, by OD(600)
Description for Staphylococcus aureus: Antibacterial activity against Staphylococcus aureus MRSA ATCC 43300 (CO-ADD:GP_020); MIC in CAMBH media, using NBS plates, by OD(600)

As a reminder, the CC50 is the concentration that lowers cell viability or growth by half. For the molecule `COc1ccc2c(c1)cc(CNC(=O)c1cc3ccccc3o1)n2CC(=O)O`, the MIC with Klebsiella pneumoniae, against Cryptococcus neoformans, in the experiment on Pseudomonas aeruginosa [1], with Escherichia coli, against Staphylococcus aureus and in the experiment with Candida albicans was greater than 20 µM in each case. Further, the MIC in the experiment on Pseudomonas aeruginosa [2] and in the experiment with Acinetobacter baumannii was greater than 20 µM each time. Also, in the experiment on HEK293, the CC50 is greater than 20 µM.

On to `Oc1cc(-c2cccc3ccccc23)[nH]n1`, for which the MIC against Klebsiella pneumoniae, in the experiment with Cryptococcus neoformans, in the experiment on Pseudomonas aeruginosa [1], against Escherichia coli, in the experiment on Staphylococcus aureus and with Candida albicans was greater than 20 µM each time. Besides, the MIC against Pseudomonas aeruginosa [2] and with Acinetobacter baumannii was greater than 20 µM throughout. Further, in the experiment with HEK293, the half-maximal cytotoxic concentration (CC50) was greater than 20 µM.

`C[C@H](c1cccc2ccccc12)N(C)Cc1ccccc1`: the MIC in the experiment with Klebsiella pneumoniae, in the experiment with Cryptococcus neoformans, against Pseudomonas aeruginosa [1], in the experiment with Escherichia coli, against Staphylococcus aureus and with Candida albicans was greater than 20 µM each time. For the same molecule, the MIC with Pseudomonas aeruginosa [2] and with Acinetobacter baumannii was greater than 20 µM throughout. For the same molecule, the cytotoxic concentration (CC50) in the experiment on HEK293 is greater than 20 µM.

For `CC(C)(C)c1cccc(-c2nc3cc(C(=N)N)ccc3[nH]2)c1O`, the MIC is greater than 20 µM in the experiment with Klebsiella pneumoniae; greater than 20 µM in the experiment on Cryptococcus neoformans; greater than 20 µM with Pseudomonas aeruginosa [1]; greater than 20 µM in the experiment on Escherichia coli; 10 µM (≈ 3.08 µg/mL) against Staphylococcus aureus; greater than 20 µM against Candida albicans. For the same molecule, the MIC against Pseudomonas aeruginosa [2] and against Acinetobacter baumannii was greater than 20 µM throughout. In addition, the cytotoxic concentration (CC50) in the experiment on HEK293 is greater than 20 µM.

Turning to `CC(C)c1ccc(COc2cccc(-c3cc([S+](C)[O-])c(C#N)c(=O)[nH]3)c2)cc1` (centres undefined), the MIC in the experiment on Klebsiella pneumoniae, against Cryptococcus neoformans, in the experiment on Pseudomonas aeruginosa [1], in the experiment on Escherichia coli, against Staphylococcus aureus and in the experiment on Candida albicans was greater than 20 µM in each case. Moreover, the MIC against Pseudomonas aeruginosa [2] and in the experiment with Acinetobacter baumannii was greater than 20 µM each time. The CC50 in the experiment with HEK293 was greater than 20 µM.

For `Fc1ccc2c(/C=C/c3cccnc3)c[nH]c2c1`, the MIC in the experiment on Klebsiella pneumoniae, with Cryptococcus neoformans, against Pseudomonas aeruginosa [1], with Escherichia coli, in the experiment with Staphylococcus aureus and against Candida albicans was greater than 20 µM in each case. Moreover, the MIC against Pseudomonas aeruginosa [2] and with Acinetobacter baumannii was greater than 20 µM in each case. For the same molecule, in the experiment with HEK293, the half-maximal cytotoxic concentration (CC50) was greater than 20 µM.

For the molecule `O=C(NCc1ncc(C(F)(F)F)cc1Cl)c1c(Cl)cccc1Cl`, the MIC against Klebsiella pneumoniae, in the experiment with Cryptococcus neoformans, against Pseudomonas aeruginosa [1], in the experiment on Escherichia coli, against Staphylococcus aureus and in the experiment with Candida albicans was greater than 20 µM each time. Besides, the MIC in the experiment on Pseudomonas aeruginosa [2] and against Acinetobacter baumannii was greater than 20 µM each time. In addition, the CC50 in the experiment with HEK293 is greater than 20 µM.

Regarding `CCCCCCC1c2ccc(O)cc2Oc2cc(O)ccc21`, the MIC in the experiment on Klebsiella pneumoniae, with Cryptococcus neoformans, against Pseudomonas aeruginosa [1], in the experiment with Escherichia coli, in the experiment with Staphylococcus aureus and with Candida albicans was greater than 20 µM in each case. The MIC against Pseudomonas aeruginosa [2] and in the experiment on Acinetobacter baumannii was greater than 20 µM each time. The cytotoxic concentration (CC50) in the experiment on HEK293 was greater than 20 µM.

For the molecule `C[C@H]1[C@@H](c2cccc(C(F)(F)F)c2)OC(=O)N1C(=O)NCc1cncc2ccccc12`, the MIC against Klebsiella pneumoniae, with Cryptococcus neoformans, with Pseudomonas aeruginosa [1], in the experiment with Escherichia coli, against Staphylococcus aureus and in the experiment with Candida albicans was greater than 20 µM each time. The MIC against Pseudomonas aeruginosa [2] and against Acinetobacter baumannii was greater than 20 µM in each case. The CC50 in the experiment with HEK293 is greater than 20 µM.

Take `O=C(Nc1[nH]c(=O)ncc1F)c1ccccc1`: the MIC against Klebsiella pneumoniae, in the experiment on Cryptococcus neoformans, in the experiment on Pseudomonas aeruginosa [1], in the experiment on Escherichia coli, in the experiment on Staphylococcus aureus and in the experiment on Candida albicans was greater than 20 µM in each case. The MIC in the experiment with Pseudomonas aeruginosa [2] and in the experiment on Acinetobacter baumannii was greater than 20 µM each time. The half-maximal cytotoxic concentration (CC50) in the experiment with HEK293 is greater than 20 µM.

For `CNc1nc(=O)[nH]cc1F`, the MIC against Klebsiella pneumoniae, in the experiment with Cryptococcus neoformans, in the experiment with Pseudomonas aeruginosa [1], against Escherichia coli, in the experiment with Staphylococcus aureus and against Candida albicans was greater than 20 µM each time. The MIC against Pseudomonas aeruginosa [2] and against Acinetobacter baumannii was greater than 20 µM each time. In the experiment on HEK293, the half-maximal cytotoxic concentration (CC50) was greater than 20 µM.

On to `Cc1cc(NS(=O)(=O)c2ccc(-c3ccc(F)cc3F)cc2)no1`, for which the MIC in the experiment with Klebsiella pneumoniae, in the experiment on Cryptococcus neoformans, with Pseudomonas aeruginosa [1], in the experiment on Escherichia coli, with Staphylococcus aureus and against Candida albicans was greater than 20 µM throughout. Besides, the MIC in the experiment with Pseudomonas aeruginosa [2] and against Acinetobacter baumannii was greater than 20 µM each time. Further, in the experiment on HEK293, the CC50 was greater than 20 µM.

Turning to `O=C(NC(=O)N1CCCc2ccccc21)c1ccc(Cl)cc1Cl`, the MIC against Klebsiella pneumoniae, in the experiment with Cryptococcus neoformans, with Pseudomonas aeruginosa [1], in the experiment with Escherichia coli, against Staphylococcus aureus and in the experiment with Candida albicans was greater than 20 µM in each case. In addition, the MIC with Pseudomonas aeruginosa [2] and against Acinetobacter baumannii was greater than 20 µM throughout. Moreover, the 50% cytotoxic concentration (CC50) in the experiment with HEK293 was greater than 20 µM.

As for `COc1cc(C2C3=C(CC(C)(C)CC3=O)Nc3ccccc3N2C(C)=O)ccc1OCc1ccccc1` (centres undefined), the MIC in the experiment with Klebsiella pneumoniae, in the experiment on Cryptococcus neoformans, against Pseudomonas aeruginosa [1], in the experiment with Escherichia coli, in the experiment on Staphylococcus aureus and in the experiment on Candida albicans was greater than 20 µM in each case. Moreover, the MIC in the experiment on Pseudomonas aeruginosa [2] and in the experiment on Acinetobacter baumannii was greater than 20 µM each time. Besides, the CC50 in the experiment on HEK293 was greater than 20 µM.

Turning to `CCCNc1ccc(S(=O)(=O)Nc2cc(C)on2)cc1`, the MIC in the experiment on Klebsiella pneumoniae, with Cryptococcus neoformans, with Pseudomonas aeruginosa [1], against Escherichia coli, against Staphylococcus aureus and in the experiment on Candida albicans was greater than 20 µM in each case. The MIC against Pseudomonas aeruginosa [2] and with Acinetobacter baumannii was greater than 20 µM throughout. For the same molecule, the CC50 with HEK293 is greater than 20 µM.

With `COC(=O)Nc1nc2c(C)cccc2[nH]1`, the MIC with Klebsiella pneumoniae, against Cryptococcus neoformans, in the experiment on Pseudomonas aeruginosa [1], against Escherichia coli, against Staphylococcus aureus and in the experiment with Candida albicans was greater than 20 µM each time. Besides, the MIC in the experiment on Pseudomonas aeruginosa [2] and with Acinetobacter baumannii was greater than 20 µM in each case. Further, the CC50 in the experiment on HEK293 was greater than 20 µM.

Regarding `N#C/C(=C1/SC[C@H](c2ccc(Cl)cc2Cl)S1)n1ccnc1`, the MIC with Klebsiella pneumoniae is greater than 20 µM; with Cryptococcus neoformans, 0.625 µM (≈ 0.221 µg/mL); with Pseudomonas aeruginosa [1] it was greater than 20 µM; against Escherichia coli, greater than 20 µM; in the experiment on Staphylococcus aureus, greater than 20 µM; in the experiment on Candida albicans, 0.312 µM (≈ 0.111 µg/mL). Further, the MIC in the experiment on Pseudomonas aeruginosa [2] and with Acinetobacter baumannii was greater than 20 µM each time. Also, in the experiment with HEK293, the CC50 was greater than 20 µM.

In the case of `CN(C)c1[nH]c(=O)ncc1F`, the MIC against Klebsiella pneumoniae, in the experiment with Cryptococcus neoformans, with Pseudomonas aeruginosa [1], in the experiment with Escherichia coli, against Staphylococcus aureus and in the experiment with Candida albicans was greater than 20 µM throughout. The MIC against Pseudomonas aeruginosa [2] and against Acinetobacter baumannii was greater than 20 µM each time. In addition, in the experiment on HEK293, the CC50 was greater than 20 µM.

On to `O=C(NC(=O)N1CCCc2ccccc21)c1cccc(Cl)c1`, for which the MIC against Klebsiella pneumoniae, with Cryptococcus neoformans, with Pseudomonas aeruginosa [1], with Escherichia coli, against Staphylococcus aureus and against Candida albicans was greater than 20 µM throughout. The MIC in the experiment on Pseudomonas aeruginosa [2] and with Acinetobacter baumannii was greater than 20 µM each time. The CC50 in the experiment on HEK293 was greater than 20 µM.

On to `CCCCSc1nc(N)c2[nH]c(=O)c(=O)n(Cc3ccccc3)c2n1`, for which the MIC against Klebsiella pneumoniae, against Cryptococcus neoformans, in the experiment on Pseudomonas aeruginosa [1], in the experiment on Escherichia coli, with Staphylococcus aureus and in the experiment with Candida albicans was greater than 20 µM each time. The MIC in the experiment with Pseudomonas aeruginosa [2] and against Acinetobacter baumannii was greater than 20 µM in each case. For the same molecule, in the experiment on HEK293, the cytotoxic concentration (CC50) is greater than 20 µM.

For the molecule `Fc1ccc(-n2cc(Cn3c(-c4cccc(F)c4)nc4ccccc43)nn2)cc1`, the MIC against Klebsiella pneumoniae, against Cryptococcus neoformans, with Pseudomonas aeruginosa [1], against Escherichia coli, in the experiment with Staphylococcus aureus and in the experiment on Candida albicans was greater than 20 µM in each case. The MIC in the experiment with Pseudomonas aeruginosa [2] and against Acinetobacter baumannii was greater than 20 µM throughout. For the same molecule, the CC50 in the experiment with HEK293 was greater than 20 µM.
